# Assay results from US7888025B2, “Intestinal folate transporter method” (Albert Einstein College of Medicine of Yeshiva University, priority 2007, dated 2011).
# Entries after “also recorded” stand apart in the source; their conditions may differ. Like-named read-outs stand apart in the source and are kept apart here.
# Key:
# G21 (PCFT) [1] = molecular target: T1, G21 (PCFT) (Homo sapiens, UniProt Q96NT5); assay: Uptake of tritiated folates in G21 cRNA-injected Xenopus oocytes; assay type: cell-based
# T1 construct: expressed in transfected cells; host or cells: Xenopus laevis oocytes injected with capped G21 cRNA (pSPT64, SP6)
# T1 sequence (Q96NT5 1-459): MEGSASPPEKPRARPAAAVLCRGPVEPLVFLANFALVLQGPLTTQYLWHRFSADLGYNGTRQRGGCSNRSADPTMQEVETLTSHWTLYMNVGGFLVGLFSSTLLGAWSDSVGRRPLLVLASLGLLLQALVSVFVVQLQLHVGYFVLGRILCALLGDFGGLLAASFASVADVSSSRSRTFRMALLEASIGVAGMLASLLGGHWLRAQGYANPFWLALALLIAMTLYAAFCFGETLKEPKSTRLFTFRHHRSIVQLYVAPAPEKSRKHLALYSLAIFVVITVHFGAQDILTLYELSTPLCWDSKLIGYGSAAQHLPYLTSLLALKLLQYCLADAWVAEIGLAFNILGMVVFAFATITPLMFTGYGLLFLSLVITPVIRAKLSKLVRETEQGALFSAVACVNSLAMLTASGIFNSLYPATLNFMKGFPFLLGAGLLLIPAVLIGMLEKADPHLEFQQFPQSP
# Protocol: Uptake studies in Xenopus oocytes. Defolliculated Xenopus laevis oocytes were prepared as described (Jansen and Akabas, 2006) and injected with 50 nl of water or G21 cRNA (30 ng). Radiotracer uptake was determined 3 or 4 days later. Seven to 10 oocytes were incubated in 500 μl of Modified Barth's Solution (MBS, in mM, 88 NaCl, 2.4 NaHCO3, 2.5 Na pyruvate, 1 KCl, 0.82 MgSO4, 0.41 CaCl2, 0.3 Ca(NO3)2, 15 MES or HEPES) and uptake of tritiated folate substrates assessed at room temperature. Uptake was halted by the addition of ice-cold MBS (pH 7.5). Oocytes were washed 10 times thereafter, and solubilized with 10% SDS for measurement of radioactivity. To collapse the pH gradient across the oocyte membrane, seven to 10 oocytes were incubated in MBS (pH 5.5) containing 0, 10, 20, 40, 60 μM FCCP for 20 min, and uptake of transport substrates assessed at pH 5.5.
# G21 (PCFT) [2] = molecular target: T1, G21 (PCFT); assay: Two-electrode voltage-clamp electrophysiology in G21 cRNA-injected Xenopus oocytes; assay type: cell-based
# Protocol: Electrophysiological analyses in Xenopus oocytes. Defolliculated oocytes were injected with 50 nl of water (control) or G21 cRNA (50 ng), and kept at 17° C. in horse serum medium (in mM, 82.5 NaCl, 2.5 KCl, 1 MgCl2, 2.3 CaCl2, 5 HEPES, 5% horse serum, pH 7.5). Electrophysiological recordings were conducted 3-7 days after cRNA injection in buffer (in mM, 90 NaCl, 1 KCl, 1 MgCl2, 1.8 CaCl2, 5 TRIS, 5 MES) as described previously (Jansen and Akabas, 2006). Oocyte holding potential was −80 mV for Km determination. For current-voltage (I-V) relationships, from a −60 mV holding potential step changes in membrane potential were applied for 2 s in 10 mV increments between −100 and 30 mV in the absence and presence of substrate.
# G21 (PCFT) [3] = molecular target: T1, G21 (PCFT); assay: Inhibition of [3H]folic acid uptake into G21 cRNA-injected Xenopus oocytes; assay type: cell-based
# Protocol: Uptake studies in Xenopus oocytes. […] Radiotracer uptake was determined 3 or 4 days later. […] Uptake was halted by the addition of ice-cold MBS (pH 7.5). Oocytes were washed 10 times thereafter, and solubilized with 10% SDS for measurement of radioactivity. To collapse the pH gradient across the oocyte membrane, seven to 10 oocytes were incubated in MBS (pH 5.5) containing 0, 10, 20, 40, 60 μM FCCP for 20 min, and uptake of transport substrates assessed at pH 5.5.
# G21 (PCFT) [4] = molecular target: T1, G21 (PCFT); assay: Inhibition of [3H]folic acid uptake in HepG2 cells stably transfected with G21 cDNA; assay type: cell-based; settings: 100 μM inhibitor, pH 6.5, HepG2 cells
# Protocol: Transfection. Transfection of plasmid DNA was performed in HepG2, HeLa, and Caco2 cells with Lipofectamine 2000 (Invitrogen). HepG2 cells, stably transfected with either pcDNA3.1(+) or pcDNA3.1(+)G21, were generated by G418 selection (600 μg/ml). Double selection with puromycin (5 μg/ml) and hygromycin (50 μg/ml) was adopted to obtain stably transfected Caco-2 cells with both G21-silencing shRNA vectors, or with both non-silencing negative control plasmids.
# Transport of folates in HepG2, HeLa and Caco2 cells. Initial uptake of tritiated folates in HepG2, HeLa, or Caco2 cells was assessed using a protocol designed for rapid uptake determinations in cells growing in monolayer culture in liquid scintillation vials (Sharif and Goldman, 2000) except that cells were incubated at pH 7.4 and 37° C. for 20 min before initiation of uptake. Substrate uptake was normalized to protein content.
# [5] = molecular target: T2, low-pH folate transporter (Homo sapiens, UniProt Q96NT5); settings: pH 5.5, intestinal and other human cells; cited from earlier work
# T2 construct: host or cells: HeLa and other cells
# T2 sequence (Q96NT5 1-459): T1 sequence (Q96NT5 1-459)
# [6] = molecular target: T3, reduced folate carrier (SLC19A1) (Homo sapiens, UniProt P41440); settings: cited from earlier work
# T3 sequence (P41440 1-591): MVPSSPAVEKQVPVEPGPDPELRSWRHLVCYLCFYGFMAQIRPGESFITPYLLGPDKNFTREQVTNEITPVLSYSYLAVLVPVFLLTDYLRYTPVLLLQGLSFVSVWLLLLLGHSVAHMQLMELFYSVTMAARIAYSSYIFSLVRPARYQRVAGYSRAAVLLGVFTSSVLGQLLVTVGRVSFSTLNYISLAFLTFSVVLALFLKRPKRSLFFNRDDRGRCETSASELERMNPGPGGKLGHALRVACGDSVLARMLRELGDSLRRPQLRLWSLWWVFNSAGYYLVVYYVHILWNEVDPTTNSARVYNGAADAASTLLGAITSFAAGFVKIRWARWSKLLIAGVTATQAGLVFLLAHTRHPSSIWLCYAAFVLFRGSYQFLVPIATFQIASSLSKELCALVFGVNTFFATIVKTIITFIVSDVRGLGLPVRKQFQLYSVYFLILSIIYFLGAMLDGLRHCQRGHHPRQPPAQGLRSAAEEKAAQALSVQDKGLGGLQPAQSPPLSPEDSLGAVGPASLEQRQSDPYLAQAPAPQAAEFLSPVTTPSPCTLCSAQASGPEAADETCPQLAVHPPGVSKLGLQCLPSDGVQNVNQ
# [7] = system: rat jejunum brush border membranes; settings: read-out: uptake Km, cited from earlier work
# HCP1 murine ortholog = molecular target: T4, HCP1 murine ortholog (Mus musculus, UniProt Q6PEM8, A402V); settings: HeLa cells, read-out: Km for [55Fe]hemin uptake; cited from earlier work
# T4 construct: host or cells: HeLa cells infected with a cDNA-containing adenovirus vector
# T4 sequence (Q6PEM8 1-459 A402V): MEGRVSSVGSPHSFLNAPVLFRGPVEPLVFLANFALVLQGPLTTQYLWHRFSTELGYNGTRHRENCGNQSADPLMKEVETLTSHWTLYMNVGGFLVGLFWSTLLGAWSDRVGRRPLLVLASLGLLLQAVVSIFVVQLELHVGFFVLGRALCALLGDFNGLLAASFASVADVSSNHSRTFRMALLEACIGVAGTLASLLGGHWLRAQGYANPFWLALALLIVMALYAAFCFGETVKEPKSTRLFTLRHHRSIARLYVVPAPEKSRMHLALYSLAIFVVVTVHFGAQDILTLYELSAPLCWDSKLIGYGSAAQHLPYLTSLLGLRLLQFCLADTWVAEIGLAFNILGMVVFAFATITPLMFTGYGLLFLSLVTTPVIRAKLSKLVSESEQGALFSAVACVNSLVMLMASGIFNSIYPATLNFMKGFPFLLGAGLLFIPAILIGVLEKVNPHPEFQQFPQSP
decrease in Vmax (G21 (PCFT) [1]; over the pH range of 5.5 to 6.5) [fold],"uptake Vmax (G21 (PCFT) [1]; pH 5.5, same batch of oocytes) [pmol/oocyte/hr]","uptake Vmax (G21 (PCFT) [1]; pH 7.5, same batch of oocytes) [pmol/oocyte/hr]",increase in Km (G21 (PCFT) [1]; pH increased from 5.5 to 7.0) [fold],increase in Km (G21 (PCFT) [1]; pH increased from 7.0 to 7.5) [fold],"current amplitude larger than (6S)5-MTHF-induced current (G21 (PCFT) [2]; saturating concentrations, same oocyte, pH 5.5) [%]","inhibition at 100 µM (G21 (PCFT) [3]; read-out: inhibition of 2 μM [3H]folic acid uptake, 100 μM inhibitor, pH 6.5, Xenopus oocytes) [%]",inhibition at 100 µM (G21 (PCFT) [4]; read-out: inhibition of 2 μM [3H]folic acid uptake) [%],"inhibitory effect on uptake of 2 μM [3H]folic acid (G21 (PCFT) [3]; 20 μM nonlabeled compound, pH 5.5, 30 min)","inhibition of 2 μM [3H]folic acid uptake (G21 (PCFT) [3]; 100 μM inhibitor, pH 6.5, Xenopus oocytes) [%]",inhibition of 2 μM [3H]folic acid uptake (G21 (PCFT) [4]) [%],Molecule,Ki [5] [µM],Ki [6] [µM],Km ([7]; pH 5.5) [µM],Km ([7]; pH 7.4) [µM],"substrate-induced current (G21 (PCFT) [2]; 100 μM hemin, with 0.1% bovine serum albumin or 200 μM arginine)",Km (HCP1 murine ortholog) [µM]
2.4,13,5,2.6,18,39±6,92 ± 2,90 ± 0.02,,,,Nc1nc2ncc(CNc3ccc(C(=O)N[C@@H](CCC(=O)O)C(=O)O)cc3)nc2c(=O)[nH]1 [folic acid],~0.6,~200,0.6,12.3,,
,,,,,,,,weak inhibitor,42±7,30±5,hemin,,,,,no current could be detected; also recorded: unable to detect,125
